Twelve compounds from ChEMBL document CHEMBL4184160, “Recent Progress of Small-Molecule Epidermal Growth Factor Receptor (EGFR) Inhibitors against C797S Resistance in Non-Small-Cell Lung Cancer” (J Med Chem, 2018) can be followed below.

The term GI50 denotes the concentration that inhibits growth by half. A higher GI50 goes with lower sensitivity of the cells. In general, IC50 refers to the midpoint of a concentration-inhibition curve.

The test system of experiment [1] is Epidermal growth factor receptor (Homo sapiens), P00533 [UNDEFINED MUTATION].
Description: Inhibition of human EGFR del19/T790M/C797S mutant expressed in mouse Ba/F3 cells assessed as cell growth inhibition after 72 hrs by CellTiter-Glo assay
Experiment [2] concerns the target Epidermal growth factor receptor (Homo sapiens, UniProt P00533). The experiment in a line: Inhibition of wild type recombinant N-terminal GST-tagged human EGFR catalytic domain expressed in Sf9 insect cells using poly-Glu-Tyr (4:1) as substrate after 2 hrs in presence of [gamma-33P]-ATP by filter-binding method.
Experiment [3] has as its target Epidermal growth factor receptor (Homo sapiens, UniProt P00533, 746-750DEL/C797S/T790M). The experiment in a line: Inhibition of recombinant human EGFR d746-750/T790M/C797S mutant using poly-Glu-Tyr (4:1) as substrate after 2 hrs in presence of [gamma-33P]-ATP by filter-binding method.
The species entered for experiment [4] is Homo sapiens. The experiment in a line: Selectivity ratio of IC50 for wild type recombinant N-terminal GST-tagged human EGFR catalytic domain to IC50 for recombinant human EGFR d746-750/T790M/C797S mutant.
The test system of the next experiment is NCI-H1975. The experiment can be described thus: Growth inhibition of human NCI-H1975 cells after 96 hrs by CellTiter-Glo assay. The class given is functional. The note with it: NCI-H1975, 96 h.
Experiment [5] addresses Epidermal growth factor receptor (Homo sapiens, UniProt P00533, C797S/L858R/T790M). The experiment in a line: Inhibition of recombinant human EGFR L858R/T790M/C797S mutant using TK-substrate after 10 mins by HTRF KinEASE-TK assay. For orientation: Time-resolved FRET reads energy transfer from a long-lived donor to a nearby acceptor.
Experiment [6] has as its target Epidermal growth factor receptor (Homo sapiens, UniProt P00533, C797S/T790M). The experiment can be described thus: Inhibition of N-terminal GST-fused human EGFR cytoplasmic domain T790M/C797S mutant expressed in baculovirus expression system using TK-substrate after 20 mins by HTRF KinEASE-TK assay.
Experiment [7] is filed under the species Homo sapiens. The experiment in a line: Selectivity ratio of IC50 for human EGFR T790M mutant to IC50 for human wild type EGFR.

Epidermal growth factor receptor (Homo sapiens, UniProt P00533), sequence (P00533 whole entry, the tested form may be a part): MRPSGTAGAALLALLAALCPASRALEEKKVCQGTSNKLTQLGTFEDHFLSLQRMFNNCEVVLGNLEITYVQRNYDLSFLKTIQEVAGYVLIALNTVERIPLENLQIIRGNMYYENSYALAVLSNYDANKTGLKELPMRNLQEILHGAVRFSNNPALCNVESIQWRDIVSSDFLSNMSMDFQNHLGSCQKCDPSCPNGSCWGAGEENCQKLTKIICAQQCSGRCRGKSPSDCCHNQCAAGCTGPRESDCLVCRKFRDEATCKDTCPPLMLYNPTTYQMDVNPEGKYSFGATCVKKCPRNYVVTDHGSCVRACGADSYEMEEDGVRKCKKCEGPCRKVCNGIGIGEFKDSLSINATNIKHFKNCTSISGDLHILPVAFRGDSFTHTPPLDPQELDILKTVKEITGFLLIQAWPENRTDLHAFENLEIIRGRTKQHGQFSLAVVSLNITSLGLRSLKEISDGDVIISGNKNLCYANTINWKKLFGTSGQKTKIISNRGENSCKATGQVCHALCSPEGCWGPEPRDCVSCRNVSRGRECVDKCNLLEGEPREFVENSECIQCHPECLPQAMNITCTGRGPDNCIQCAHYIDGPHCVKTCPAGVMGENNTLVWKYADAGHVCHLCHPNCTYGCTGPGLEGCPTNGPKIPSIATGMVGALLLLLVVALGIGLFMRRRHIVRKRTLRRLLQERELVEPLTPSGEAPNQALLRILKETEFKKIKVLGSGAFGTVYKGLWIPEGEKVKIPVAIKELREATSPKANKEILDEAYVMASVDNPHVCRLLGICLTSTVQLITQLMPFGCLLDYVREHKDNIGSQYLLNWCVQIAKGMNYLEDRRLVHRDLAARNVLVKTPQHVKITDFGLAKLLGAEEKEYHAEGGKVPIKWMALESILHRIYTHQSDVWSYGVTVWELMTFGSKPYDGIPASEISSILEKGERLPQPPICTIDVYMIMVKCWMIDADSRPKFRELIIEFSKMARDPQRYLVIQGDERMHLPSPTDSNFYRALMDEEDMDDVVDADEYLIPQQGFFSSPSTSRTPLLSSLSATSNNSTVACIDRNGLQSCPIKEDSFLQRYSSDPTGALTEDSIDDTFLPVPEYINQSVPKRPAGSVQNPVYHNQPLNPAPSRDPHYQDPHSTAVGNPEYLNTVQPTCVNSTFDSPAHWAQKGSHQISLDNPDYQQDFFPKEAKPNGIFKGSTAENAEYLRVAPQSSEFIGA
Epidermal growth factor receptor (Homo sapiens, UniProt P00533, 746-750DEL/C797S/T790M), sequence (P00533 whole entry, looked up, stated change not applied, the tested form may be a part): as the sequence (P00533 whole entry, the tested form may be a part) above
Epidermal growth factor receptor (Homo sapiens), P00533 [UNDEFINED MUTATION], sequence (P00533 whole entry, looked up, stated change not applied, the tested form may be a part): as the sequence (P00533 whole entry, the tested form may be a part) above
Epidermal growth factor receptor (Homo sapiens, UniProt P00533, C797S/L858R/T790M), sequence (P00533 25-1210 T790M/C797S/L858R limits assumed): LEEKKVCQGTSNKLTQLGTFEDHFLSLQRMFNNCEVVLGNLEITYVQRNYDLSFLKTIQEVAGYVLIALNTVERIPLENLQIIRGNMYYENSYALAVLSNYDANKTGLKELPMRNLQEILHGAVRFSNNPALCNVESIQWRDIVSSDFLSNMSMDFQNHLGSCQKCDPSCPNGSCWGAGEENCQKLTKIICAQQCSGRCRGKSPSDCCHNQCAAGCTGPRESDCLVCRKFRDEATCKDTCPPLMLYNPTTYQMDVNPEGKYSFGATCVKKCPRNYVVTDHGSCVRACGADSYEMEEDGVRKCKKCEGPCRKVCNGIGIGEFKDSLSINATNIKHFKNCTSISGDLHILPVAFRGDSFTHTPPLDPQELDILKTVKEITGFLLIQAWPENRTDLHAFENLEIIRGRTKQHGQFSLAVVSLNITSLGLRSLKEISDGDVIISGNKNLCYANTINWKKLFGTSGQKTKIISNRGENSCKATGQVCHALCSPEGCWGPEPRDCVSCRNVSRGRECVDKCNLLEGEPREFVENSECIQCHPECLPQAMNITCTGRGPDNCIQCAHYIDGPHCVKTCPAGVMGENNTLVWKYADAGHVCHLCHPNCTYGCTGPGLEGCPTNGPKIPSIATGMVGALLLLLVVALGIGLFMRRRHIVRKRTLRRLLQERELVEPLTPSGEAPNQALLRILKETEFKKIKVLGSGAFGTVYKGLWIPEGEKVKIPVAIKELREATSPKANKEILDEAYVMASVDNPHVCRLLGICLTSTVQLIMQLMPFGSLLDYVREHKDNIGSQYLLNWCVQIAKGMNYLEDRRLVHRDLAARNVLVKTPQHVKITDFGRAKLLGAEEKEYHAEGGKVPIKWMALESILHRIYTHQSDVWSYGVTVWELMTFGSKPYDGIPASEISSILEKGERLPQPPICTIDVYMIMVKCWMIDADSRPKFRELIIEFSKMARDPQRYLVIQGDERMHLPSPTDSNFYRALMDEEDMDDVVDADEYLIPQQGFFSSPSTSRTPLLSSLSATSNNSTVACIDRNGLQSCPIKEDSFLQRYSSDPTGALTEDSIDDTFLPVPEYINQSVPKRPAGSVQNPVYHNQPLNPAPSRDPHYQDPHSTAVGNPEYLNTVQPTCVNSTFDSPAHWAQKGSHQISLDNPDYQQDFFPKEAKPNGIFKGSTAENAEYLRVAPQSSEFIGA

`COc1cc(N2CCC(N(C)C)CC2)ccc1Nc1ncc(Cl)c(Nc2ccccc2P(C)(C)=O)n1` registered a concentration for 50% growth inhibition (GI50) in experiment [1] of 59.1 nM.
Consider `N#Cc1ccc(O)c(-c2nc(NCc3cccnc3)c3ccccc3n2)c1`, for which the values for the IC50 in experiment [2] and in experiment [3] were over 50 µM and 23 nM, respectively. The Ratio IC50 in the experiment filed under Homo sapiens [4] was over 1000.
In the case of `C=CC(=O)N1CCC[C@@H](n2nc(-c3ccc4ccccc4c3)c3c(N)ncnc32)C1`, in the experiment on NCI-H1975, the GI50 came out at 140 nM. Also, the IC50 was 88 nM in experiment [5] and under 1 nM in experiment [6].
On to `COc1cc(N2CCC(N3CCN(C)CC3)CC2)ccc1Nc1ncnc(Nc2ccccc2S(=O)(=O)C(C)C)n1`, for which halving of growth in experiment [1] (GI50) required 1510 nM.
With `C=CC(=O)Nc1cccc(Oc2nc(Nc3ccc(N4CCN(C)CC4)cc3OC)ncc2Cl)c1`, in the experiment listed under Homo sapiens [7], the Ratio IC50 lay within 30 to 100.
`COc1cc(N2CCC(N)CC2)ccc1Nc1ncc(Cl)c(-c2c[nH]c3ccccc23)n1` gave a GI50 in experiment [1] of 132 nM.
For `N#Cc1ccc(O)c(-c2nc(NCc3cnccn3)c3ccccc3n2)c1`, the IC50 is over 50 µM in experiment [2] and 17 nM in experiment [3]. In addition, the Ratio IC50 in the experiment listed under Homo sapiens [4] was over 1000.
For `Oc1ccccc1-c1nc(NCc2cccnc2)c2ccccc2n1` the same measures were 24.3 µM, 149 nM and 163.
On to `C=CC(=O)N1CCC[C@@H](n2nc(-c3cccc4ccccc34)c3c(N)ncnc32)C1`, for which halving of growth in the experiment on NCI-H1975 (GI50) required 490 nM. The IC50 turned out to be 7900 nM in experiment [5] and 1.9 nM in experiment [6].
Regarding `COC(=O)c1ccc(O)c(-c2nc(NCc3cccnc3)c3ccccc3n2)c1`, the half-inhibitory concentration (IC50) in experiment [2] is over 50 µM; in experiment [3], 46 nM. Also, the Ratio IC50 in the experiment listed under Homo sapiens [4] is over 1000.
In experiment [1], `Cc1cc(Nc2ncc(Cl)c(Nc3ccccc3S(=O)(=O)C(C)C)n2)c(OC(C)C)cc1C1CCNCC1` gave a GI50 of 780 nM.
Take `C=CC(=O)N1CCC[C@@H](n2nc(-c3cn(C)c4ccccc34)c3c(N)ncnc32)C1`: the GI50 with NCI-H1975 is 210 nM. Further, the figures for the IC50 in experiment [5] and in experiment [6] were 838 nM and 2.5 nM, respectively.
